Experimental data reported in patent US4971965A, “Antibiotics TAN-1057” (Takeda Chemical Industries, Ltd., priority 1988, dated 1990).
In brackets after ≈: the same amount, converted by molar mass.

What was measured:
[1] = test system: Staphylococcus aureus C10; experiment: Antibacterial activity against clinically isolated S. aureus (agar dilution MIC, Table 2); assay type: cell-based; settings: Staphylococcus aureus; strain C10; agar dilution; Mueller Hinton medium; 10^6 CFU/ml; read-out: MIC
Procedure: (§1) DMPPC: Methicillin, KM: Kanamycin, GM: Gentamycin, EM: Erythromycin (Note
(§2) Determined by the agar dilution method. Medium: Mueller Hinton medium
(§3) (Difco, USA) Inoculum Size: 10^6 CFU/ml, 37° C.

Staphylococcus aureus C3 = experiment: as above; assay type: cell-based; settings: Staphylococcus aureus; strain C3; agar dilution; Mueller Hinton medium; 10^6 CFU/ml; read-out: MIC
Procedure: as §1, §2, §3

Staphylococcus aureus C7 = experiment: as above; assay type: cell-based; settings: Staphylococcus aureus; strain C7; agar dilution; Mueller Hinton medium; 10^6 CFU/ml; read-out: MIC
Procedure: as §1, §2, §3

[2] = test system: Staphylococcus aureus N121; experiment: as above; assay type: cell-based; settings: Staphylococcus aureus; strain N121; agar dilution; Mueller Hinton medium; 10^6 CFU/ml; read-out: MIC
Procedure: as §1, §2, §3

[3] = test system: Staphylococcus aureus N176-3; experiment: as above; assay type: cell-based; settings: Staphylococcus aureus, N1763; strain N176-3; agar dilution; Mueller Hinton medium; 10^6 CFU/ml; read-out: MIC
Procedure: as §1, §2, §3

[4] = test system: Staphylococcus aureus N247-16; experiment: as above; assay type: cell-based; settings: Staphylococcus aureus, N24716; strain N247-16; agar dilution; Mueller Hinton medium; 10^6 CFU/ml; read-out: MIC
Procedure: as §1, §2, §3

[5] = test system: Staphylococcus aureus N326; experiment: as above; assay type: cell-based; settings: Staphylococcus aureus; strain N326; agar dilution; Mueller Hinton medium; 10^6 CFU/ml; read-out: MIC
Procedure: as §1, §2, §3

[6] = test system: Staphylococcus aureus N62; experiment: as above; assay type: cell-based; settings: Staphylococcus aureus; strain N62; agar dilution; Mueller Hinton medium; 10^6 CFU/ml; read-out: MIC
Procedure: as §1, §2, §3

Staphylococcus aureus N8 = experiment: as above; assay type: cell-based; settings: Staphylococcus aureus; strain N8; agar dilution; Mueller Hinton medium; 10^6 CFU/ml; read-out: MIC
Procedure: as §1, §2, §3

[7] = test system: Staphylococcus aureus TST-75; experiment: as above; assay type: cell-based; settings: Staphylococcus aureus, TST75; strain TST-75; agar dilution; Mueller Hinton medium; 10^6 CFU/ml; read-out: MIC
Procedure: as §1, §2, §3

[8] = test system: Mycoplasma garisepticum TB-3A; experiment: MIC against Mycoplasma (Table 3); assay type: cell-based; settings: TB3A, 120 h, 10^6 CFU/ml, Hayflick medium, 37° C., 5 days
[9] = test system: Acinetobacter calcoaceticus IFO 12552; assay type: cell-based; settings: IFO12552, agar dilution, DY medium, pH unadjusted, approx. 10^6 CFU/ml, read-out: Minimum Inhibitory Conc. (MIC)
Procedure: (§4) (Note 1) Measurement was conducted by employing a medium consisting of DY
(§5) medium [Bacto Antibiotic Medium 3 (Difco Laboratories, USA)(17.5 g), Bact
(§6) yeast extract(Difco Laboratories, USA)(5.0 g) and distilled water(pH
(§7) unadjusted)(1000 ml)], using approximately 10^6 colony forming unit/m
(§8) of inoculum, by means of the agar dilution method.

Aeromonas caviae NCW = assay type: cell-based; settings: read-out: Minimum Inhibitory Conc. (MIC)
Procedure: as §4, §5, §6, §7, §8

Bacillus cereus FDA 5 = assay type: cell-based; settings: FDA5, agar dilution, DY medium, pH unadjusted, approx. 10^6 CFU/ml, read-out: Minimum Inhibitory Conc. (MIC)
Procedure: as §4, §5, §6, §7, §8

[10] = test system: Bacillus megaterium IFO 12108; assay type: cell-based; settings: Priestia megaterium, IFO12108, read-out: Minimum Inhibitory Conc. (MIC)
Procedure: as §4, §5, §6, §7, §8

[11] = test system: Bacillus subtilis NIHJ PCI 219; assay type: cell-based; settings: read-out: Minimum Inhibitory Conc. (MIC)
Procedure: as §4, §5, §6, §7, §8

Escherichia coli LD-2 = assay type: cell-based; settings: LD2, read-out: Minimum Inhibitory Conc. (MIC)
Procedure: as §4, §5, §6, §7, §8

[12] = test system: Escherichia coli NIHJ JC 2; assay type: cell-based; settings: NIHJJC2, agar dilution, DY medium, pH unadjusted, approx. 10^6 CFU/ml, read-out: Minimum Inhibitory Conc. (MIC)
Procedure: as §4, §5, §6, §7, §8

[13] = test system: Klebsiella pnemoniae IFO 3317; assay type: cell-based; settings: IFO3317, agar dilution, DY medium, pH unadjusted, approx. 10^6 CFU/ml, read-out: Minimum Inhibitory Conc. (MIC)
Procedure: as §4, §5, §6, §7, §8

[14] = test system: Micrococcus luteus IFO 12708; assay type: cell-based; settings: IFO12708, read-out: Minimum Inhibitory Conc. (MIC)
Procedure: as §4, §5, §6, §7, §8

[15] = test system: Proteus vulgaris IFO 3988; assay type: cell-based; settings: IFO3988, agar dilution, DY medium, pH unadjusted, approx. 10^6 CFU/ml, read-out: Minimum Inhibitory Conc. (MIC)
Procedure: as §4, §5, §6, §7, §8

[16] = test system: Pseudomonas aeruginosa IFO 3080; assay type: cell-based; settings: IFO3080, agar dilution, DY medium, pH unadjusted, approx. 10^6 CFU/ml, read-out: Minimum Inhibitory Conc. (MIC)
Procedure: as §4, §5, §6, §7, §8

[17] = test system: Salmonella typhimurium IFO 12529; assay type: cell-based; settings: Salmonella enterica; agar dilution; DY medium, pH unadjusted; approx. 10^6 CFU/ml; read-out: Minimum Inhibitory Conc. (MIC)
Procedure: as §4, §5, §6, §7, §8

[18] = test system: Staphylococcus aureus FDA 209P; assay type: cell-based; settings: FDA209P, read-out: Minimum Inhibitory Conc. (MIC)
Procedure: as §4, §5, §6, §7, §8

[19] = test system: Staphylococcus epidermidis IFO 3762; assay type: cell-based; settings: IFO3762, agar dilution, DY medium, pH unadjusted, approx. 10^6 CFU/ml, read-out: Minimum Inhibitory Conc. (MIC)
Procedure: as §4, §5, §6, §7, §8

[20] = test system: Streptococcus faecalis IFO 3989; assay type: cell-based; settings: Enterococcus faecalis, IFO3989, read-out: Minimum Inhibitory Conc. (MIC)
Procedure: as §4, §5, §6, §7, §8

[21] = Conversion in aqueous solution; assay type: physicochemical; settings: room temperature
Text: For example, in case that the mixture of TAN-1057A and B is isolated as crystals of the sulfate, the ratio of TAN-1057A and B is about 6 to 8:4 to 2.
The term "Antibiotics TAN-1057" in the present specification includes also a mixture which contains TAN-1057A, B, C and D in an optional combination and an optional ratio thereof.

Structure (SMILES): CN(C(=O)C[C@@H](N)CCCNC(=N)N)[C@H]1CNC(NC(N)=O)=NC1=O [TAN-1057A]
- MIC [1]: 0.78 µg/mL (≈ 2.19 µM)
- MIC (Staphylococcus aureus C3): 0.78 µg/mL (≈ 2.19 µM)
- MIC (Staphylococcus aureus C7): 0.78 µg/mL (≈ 2.19 µM)
- MIC [2]: 0.78 µg/mL (≈ 2.19 µM)
- MIC [3]: 1.56 µg/mL (≈ 4.39 µM)
- MIC [4]: 0.78 µg/mL (≈ 2.19 µM)
- MIC [5]: 0.78 µg/mL (≈ 2.19 µM)
- MIC [6]: 0.78 µg/mL (≈ 2.19 µM)
- MIC (Staphylococcus aureus N8): 0.78 µg/mL (≈ 2.19 µM)
- MIC [7]: 0.78 µg/mL (≈ 2.19 µM)
- MIC [8]: 3.13 µg/mL (≈ 8.81 µM)
- MIC [9]: 50 µg/mL (≈ 141 µM)
- MIC (Aeromonas caviae NCW): 12.5 µg/mL (≈ 35.2 µM)
- MIC (Bacillus cereus FDA 5): 25 µg/mL (≈ 70.3 µM)
- MIC [10]: 12.5 µg/mL (≈ 35.2 µM)
- MIC [11]: 12.5 µg/mL (≈ 35.2 µM)
- MIC (Escherichia coli LD-2): 12.5 µg/mL (≈ 35.2 µM)
- MIC [12]: > 100 µg/mL
- MIC [13]: > 100 µg/mL
- MIC [14]: 3.13 µg/mL (≈ 8.81 µM)
- MIC [15]: > 100 µg/mL
- MIC [16]: > 100 µg/mL
- MIC [17]: 100 µg/mL (≈ 281 µM)
- MIC [18]: 6.25 µg/mL (≈ 17.6 µM)
- MIC [19]: 0.78 µg/mL (≈ 2.19 µM)
- MIC [20]: 12.5 µg/mL (≈ 35.2 µM)
- conversion of TAN-1057A and B into each other [21]: converted easily each other
